The record followed here is patent US20190119284A1, “ErbB Inhibitors and Uses Thereof” (The Regents of the University of California, priority 2016, published 2019).

The target of assay [1] is T1, HER3 kinase domain (Homo sapiens, UniProt P21860).
T1 construct: added to 19 μL of the HER3 kinase domain in reaction buffer; made in house; host or cells: baculovirus/insect cells (inferred from the pFastBac plasmid)
Kind of assay: HER3 Thermofluor Assay. The class given is binding. The following applies: 20 μM inhibitor. The procedure: HER3 Thermofluor Assay. The HER3 gatekeeper mutation (T787M) was introduced into the HER3 tyrosine kinase domain in the pFastBac plasmid using standard protocols. Both wt and T787M HER3 were purified according to the previously published protocols. Thermofluor reactions were performed in duplicate and set up as follows. 1 μL of an inhibitor or DMSO dilution in 40% DMSO:water was added to 19 μL of the HER3 kinase domain in reaction buffer. The final reaction solution contained 100 mM MOPS, 200 mM NaCl, 5% glycerol, 5 mM MgCl2, 0.1 mM DTT, 5× SYPRO orange, 2 μM kinase, 2% DMSO and 20 μM inhibitor in the wells of a 96-well, low profile, white, PCR plate (USA scientific). The solution was pipetted up and down to mix, sealed with TempAssure clear PCR flat caps (USA Scientific), centrifuged at 500×g for 30 s, and heated in a Stratagene Mx3005P RT-PCR machine from 25° C. to 95° C. in 0.5° C. increments every 30 s after an initial incubation at 25° C. for 10 min. Fluorescence was measured at the end of each 30 s period with an excitation wavelength of 492 nm and an emission wavelength of 610 nm. […] Values after the well had reached a maximum signal were discarded and the signals were fit to the Boltzmann equation in Graphpad Prism 6. ΔTm was calculated as the difference in melting temperature between the compound treated kinase compared to the DMSO control.
(DSF heats the sample and reads unfolding from a dye or from intrinsic fluorescence.)

Assay [2] deals with JAK3 (Homo sapiens, UniProt P52333). Kind of assay: Nanosyn in vitro kinase profiling: JAK3. The class given is biochemical. The procedure: (§1) This was confirmed by in vitro profiling against a panel of kinases, with compound 2 only showing potent inhibition of EGFR and Ab1 (Table 2).
Chain of JAK3 (P52333 whole entry): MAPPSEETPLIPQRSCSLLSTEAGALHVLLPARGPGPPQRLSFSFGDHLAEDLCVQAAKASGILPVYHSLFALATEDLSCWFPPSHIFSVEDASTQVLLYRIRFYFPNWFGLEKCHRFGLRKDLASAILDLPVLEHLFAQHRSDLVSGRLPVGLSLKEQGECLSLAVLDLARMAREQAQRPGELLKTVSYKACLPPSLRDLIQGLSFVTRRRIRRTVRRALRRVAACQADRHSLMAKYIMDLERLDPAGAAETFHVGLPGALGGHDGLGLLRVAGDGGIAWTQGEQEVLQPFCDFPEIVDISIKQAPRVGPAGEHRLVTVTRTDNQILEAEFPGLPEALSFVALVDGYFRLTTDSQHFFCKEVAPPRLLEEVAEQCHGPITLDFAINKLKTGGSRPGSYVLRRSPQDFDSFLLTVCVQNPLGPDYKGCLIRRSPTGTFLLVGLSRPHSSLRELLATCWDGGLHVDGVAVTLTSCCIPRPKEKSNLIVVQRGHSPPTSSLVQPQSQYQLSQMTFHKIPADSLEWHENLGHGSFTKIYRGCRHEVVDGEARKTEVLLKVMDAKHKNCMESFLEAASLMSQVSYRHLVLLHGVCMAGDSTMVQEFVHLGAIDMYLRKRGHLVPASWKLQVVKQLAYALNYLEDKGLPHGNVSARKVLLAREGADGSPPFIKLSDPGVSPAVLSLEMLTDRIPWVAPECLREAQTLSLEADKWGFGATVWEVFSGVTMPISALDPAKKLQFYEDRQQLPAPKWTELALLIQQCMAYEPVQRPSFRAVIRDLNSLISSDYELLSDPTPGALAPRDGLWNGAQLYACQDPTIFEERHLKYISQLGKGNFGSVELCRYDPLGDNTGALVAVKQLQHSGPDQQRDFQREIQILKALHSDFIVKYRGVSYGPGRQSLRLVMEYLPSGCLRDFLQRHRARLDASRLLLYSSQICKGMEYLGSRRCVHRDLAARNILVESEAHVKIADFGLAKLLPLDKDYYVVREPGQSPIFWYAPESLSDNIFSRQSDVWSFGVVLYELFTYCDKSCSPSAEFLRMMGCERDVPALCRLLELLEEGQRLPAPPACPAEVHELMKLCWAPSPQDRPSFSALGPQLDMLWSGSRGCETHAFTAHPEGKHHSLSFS
(§2) In vitro Kinome Screen. In vitro profiling of compound 2 at 100 nM was conducted by Nanosyn.

Assay [3] has as its target ALK (Homo sapiens, UniProt Q9UM73). Kind of assay: Nanosyn in vitro kinase profiling: ALK. The class given is biochemical. The protocol: as §1, §2
Assay [4] deals with EPH-B4 (Homo sapiens, UniProt P54760). Kind of assay: Nanosyn in vitro kinase profiling: EPH-B4. The class given is biochemical. The protocol: as §1, §2
Chain of EPH-B4 (P54760 16-987, species assumed): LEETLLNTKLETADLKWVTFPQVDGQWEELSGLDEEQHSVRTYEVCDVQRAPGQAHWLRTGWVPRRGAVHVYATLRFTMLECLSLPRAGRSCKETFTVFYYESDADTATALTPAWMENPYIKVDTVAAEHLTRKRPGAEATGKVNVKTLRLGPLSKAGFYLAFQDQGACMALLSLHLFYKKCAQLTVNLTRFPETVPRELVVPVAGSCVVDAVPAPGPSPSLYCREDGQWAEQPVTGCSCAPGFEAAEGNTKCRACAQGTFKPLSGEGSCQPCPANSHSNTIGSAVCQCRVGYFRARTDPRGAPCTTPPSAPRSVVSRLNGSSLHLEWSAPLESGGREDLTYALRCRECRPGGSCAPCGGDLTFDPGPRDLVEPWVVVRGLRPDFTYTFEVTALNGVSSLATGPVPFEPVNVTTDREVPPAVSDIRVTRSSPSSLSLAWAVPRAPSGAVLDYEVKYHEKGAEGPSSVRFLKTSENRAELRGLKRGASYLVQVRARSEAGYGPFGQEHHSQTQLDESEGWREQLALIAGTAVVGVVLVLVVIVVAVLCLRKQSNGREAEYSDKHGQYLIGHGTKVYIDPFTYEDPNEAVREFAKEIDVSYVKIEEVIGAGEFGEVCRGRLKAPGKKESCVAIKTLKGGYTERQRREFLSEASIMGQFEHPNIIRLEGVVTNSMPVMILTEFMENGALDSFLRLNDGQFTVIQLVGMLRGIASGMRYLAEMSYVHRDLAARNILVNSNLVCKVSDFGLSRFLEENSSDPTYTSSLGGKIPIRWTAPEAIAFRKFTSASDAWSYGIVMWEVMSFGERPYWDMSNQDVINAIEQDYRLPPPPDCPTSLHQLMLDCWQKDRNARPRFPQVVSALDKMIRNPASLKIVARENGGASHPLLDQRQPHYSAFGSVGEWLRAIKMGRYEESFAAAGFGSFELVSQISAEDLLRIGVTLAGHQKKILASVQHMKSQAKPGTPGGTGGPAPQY
The target of assay [5] is TRKA (Homo sapiens, UniProt P04629). Kind of assay: Nanosyn in vitro kinase profiling: TRKA. The class given is biochemical. The procedure:
as §1, §2

Assay [6] has as its target TSSK1 (Homo sapiens, UniProt Q9BXA7). Kind of assay: Nanosyn in vitro kinase profiling: TSSK1. The class given is biochemical. The protocol: as §1, §2
In assay [7] the test system is CHL-1 cells. Kind of assay: growth of CHL-1 cells over 96 h (IncuCyte Zoom confluence). The class given is cell-based. The note with it: CHL-1, 96 h, compared with lapatinib.
Assay [8] has as its system HER2/HER3 signaling in CHL-1 cells. Kind of assay: HER2/HER3 signaling in CHL-1 cells. The class given is cell-based. The following applies: compared with lapatinib.
Assay [9] deals with HER2 overexpressing cell lines (BT-474, SK-BR-3). Kind of assay: cell death with CellTox green (Incucyte Zoom), 72 h +/- NRG. The class given is cell-based. The following applies: BT-474 and SK-BR-3, 72 h +/- NRG. The procedure:
FIGS. 15A-15C. NRG rescues HER2 overexpressing cell lines from type 1.5 inhibitors but not compound 3. FIG. 15A. BT-474 cells were treated with the indicated concentrations of drugs in the presence or absence of NRG for 72 h. Cell death was determined using CellTox green with the Incucyte Zoom data are represented as mean values±SD (n=3). FIG. 15B. Same experiment as in FIG. 15A, but with SK-BR-3 cells. c. Cells were treated with 1 μM of the indicated inhibitor in the presence of varying concentrations of NRG. The lapatininb data is reproduced from FIG. 1C (mean value±SD, n=3).

The subject of assay [10] is mutationally activated EGFR. Kind of assay: proliferation assays of EGFR cell lines (FIG. 7C). The class given is cell-based. The note with it: in contrast to lapatinib.
In assay [11] the target is JAK2 (Homo sapiens, UniProt O60674). Kind of assay: Nanosyn in vitro kinase profiling: JAK2. The class given is biochemical. The following applies: compound at 1 μM.
In assay [12] the target is MEK1 (Homo sapiens, UniProt Q02750). Kind of assay: Nanosyn in vitro kinase profiling: MEK1. The note with it: compound at 1 μM. The class given is biochemical.
Assay [13] deals with PRKACA (Homo sapiens, UniProt P17612). Kind of assay: Nanosyn in vitro kinase profiling: PRKACA. The class given is biochemical. The following applies: compound at 1 μM.
In assay [14] the target is MAPK1 (Homo sapiens, UniProt P28482). Kind of assay: Nanosyn in vitro kinase profiling: MAPK1. The class given is biochemical. The note with it: compound at 1 μM.
Assay [15] has as its target mutationally activated forms of EGFR (Homo sapiens, UniProt P00533, DEL746-750). Kind of assay: EGFR phosphosite signaling in HCC 827 cells. The class given is cell-based. Also noted: endogenous in cells; host or cells: HCC 827 (A1). The note with it: concentration giving near complete inhibition.
The test system of assay [16] is HER2/HER3 signaling in SK-BR-3 cells. Kind of assay: HER2/HER3 signaling in SK-BR-3 cells (western blot). The class given is cell-based. The source says: FIGS. 1A-1E. […] FIG. 1E: Cartoon schematic of the EGFR family kinase domain asymmetric dimer. The C-terminal domain of the ‘activator’ kinase (right) interacts with the N-terminal portion of the ‘receiver’ kinase (left). This interaction stabilizes the active conformation of the receiver kinase identified by the ‘in’ conformation of the receiver kinase's α-C helix and the ordered extension of the activation loop.

Assay [17] has as its system 2YFTM/HER3wt and 2YFTM/3TM Ba/F3 cells. Kind of assay: Ba/F3 proliferation assay, HER2 gatekeeper mutant lines. The note with it: Ba/F3 lines with methionine gatekeeper mutation in HER2. The class given is cell-based. The procedure:
Proliferation Assays. […] For all normalized assays, proliferation was normalized to the DMSO control condition. All graphs were plotted in GraphPad Prism 6 and fit with a non-linear regression of the log(inhibitor) vs response with a variable slope where shown. All graphs are averages (+/−standard deviation) of biological triplicates each performed in technical triplicate unless otherwise noted. If only one biological replicate was performed standard deviations were derived from the technical replicates.

Chain of TSSK1 (Q9BXA7 whole entry, species assumed): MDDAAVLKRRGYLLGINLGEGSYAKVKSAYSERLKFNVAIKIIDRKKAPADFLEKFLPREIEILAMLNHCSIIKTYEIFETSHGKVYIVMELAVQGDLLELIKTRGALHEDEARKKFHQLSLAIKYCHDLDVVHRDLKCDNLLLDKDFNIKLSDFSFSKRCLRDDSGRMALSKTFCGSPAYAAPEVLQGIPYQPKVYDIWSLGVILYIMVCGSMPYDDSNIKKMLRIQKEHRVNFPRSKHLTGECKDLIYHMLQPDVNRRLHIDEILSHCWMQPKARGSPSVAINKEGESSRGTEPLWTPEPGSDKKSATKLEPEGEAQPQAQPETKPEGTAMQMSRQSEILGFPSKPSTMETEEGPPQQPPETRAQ
Chain of ALK (Q9UM73 19-1620, species assumed): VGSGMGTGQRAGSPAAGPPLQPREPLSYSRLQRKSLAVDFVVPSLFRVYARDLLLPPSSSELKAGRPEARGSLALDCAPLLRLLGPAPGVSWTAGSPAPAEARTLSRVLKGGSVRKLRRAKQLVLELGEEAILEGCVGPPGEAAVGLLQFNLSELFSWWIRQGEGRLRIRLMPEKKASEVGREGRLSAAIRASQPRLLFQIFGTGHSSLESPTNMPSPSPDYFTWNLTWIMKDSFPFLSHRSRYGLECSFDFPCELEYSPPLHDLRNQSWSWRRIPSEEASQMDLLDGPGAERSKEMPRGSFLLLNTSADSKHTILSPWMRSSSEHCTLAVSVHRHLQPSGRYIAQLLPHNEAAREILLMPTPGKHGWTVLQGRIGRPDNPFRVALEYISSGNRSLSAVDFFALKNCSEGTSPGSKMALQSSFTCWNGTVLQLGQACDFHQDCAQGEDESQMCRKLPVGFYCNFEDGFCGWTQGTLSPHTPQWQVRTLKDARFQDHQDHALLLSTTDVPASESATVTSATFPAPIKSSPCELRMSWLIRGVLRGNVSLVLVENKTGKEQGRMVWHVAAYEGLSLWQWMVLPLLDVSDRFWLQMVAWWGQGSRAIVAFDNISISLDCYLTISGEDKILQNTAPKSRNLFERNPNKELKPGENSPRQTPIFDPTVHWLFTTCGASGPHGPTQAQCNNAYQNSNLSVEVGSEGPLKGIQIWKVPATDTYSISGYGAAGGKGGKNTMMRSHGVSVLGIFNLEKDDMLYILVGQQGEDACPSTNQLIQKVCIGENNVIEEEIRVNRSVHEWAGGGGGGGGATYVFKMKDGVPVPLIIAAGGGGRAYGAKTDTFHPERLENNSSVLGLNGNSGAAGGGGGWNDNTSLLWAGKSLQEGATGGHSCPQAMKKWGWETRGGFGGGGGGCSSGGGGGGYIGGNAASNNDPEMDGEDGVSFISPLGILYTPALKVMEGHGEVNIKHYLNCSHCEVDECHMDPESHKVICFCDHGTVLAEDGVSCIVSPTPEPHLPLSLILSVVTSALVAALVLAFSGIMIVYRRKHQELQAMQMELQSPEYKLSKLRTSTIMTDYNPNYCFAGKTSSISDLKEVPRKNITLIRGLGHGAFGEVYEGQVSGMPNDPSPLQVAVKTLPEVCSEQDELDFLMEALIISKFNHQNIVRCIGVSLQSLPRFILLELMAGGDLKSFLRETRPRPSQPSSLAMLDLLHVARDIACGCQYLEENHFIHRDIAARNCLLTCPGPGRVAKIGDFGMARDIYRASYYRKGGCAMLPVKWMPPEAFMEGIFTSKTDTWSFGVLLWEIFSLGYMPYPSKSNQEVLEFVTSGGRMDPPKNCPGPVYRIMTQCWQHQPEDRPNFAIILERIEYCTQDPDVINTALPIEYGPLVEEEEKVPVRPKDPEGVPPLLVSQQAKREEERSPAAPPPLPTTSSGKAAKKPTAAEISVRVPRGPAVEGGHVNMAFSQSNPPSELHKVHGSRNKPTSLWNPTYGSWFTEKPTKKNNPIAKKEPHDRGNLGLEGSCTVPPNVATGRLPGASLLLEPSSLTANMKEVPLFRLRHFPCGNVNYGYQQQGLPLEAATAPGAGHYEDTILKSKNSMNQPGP
Chain of TRKA (P04629 33-796, species assumed): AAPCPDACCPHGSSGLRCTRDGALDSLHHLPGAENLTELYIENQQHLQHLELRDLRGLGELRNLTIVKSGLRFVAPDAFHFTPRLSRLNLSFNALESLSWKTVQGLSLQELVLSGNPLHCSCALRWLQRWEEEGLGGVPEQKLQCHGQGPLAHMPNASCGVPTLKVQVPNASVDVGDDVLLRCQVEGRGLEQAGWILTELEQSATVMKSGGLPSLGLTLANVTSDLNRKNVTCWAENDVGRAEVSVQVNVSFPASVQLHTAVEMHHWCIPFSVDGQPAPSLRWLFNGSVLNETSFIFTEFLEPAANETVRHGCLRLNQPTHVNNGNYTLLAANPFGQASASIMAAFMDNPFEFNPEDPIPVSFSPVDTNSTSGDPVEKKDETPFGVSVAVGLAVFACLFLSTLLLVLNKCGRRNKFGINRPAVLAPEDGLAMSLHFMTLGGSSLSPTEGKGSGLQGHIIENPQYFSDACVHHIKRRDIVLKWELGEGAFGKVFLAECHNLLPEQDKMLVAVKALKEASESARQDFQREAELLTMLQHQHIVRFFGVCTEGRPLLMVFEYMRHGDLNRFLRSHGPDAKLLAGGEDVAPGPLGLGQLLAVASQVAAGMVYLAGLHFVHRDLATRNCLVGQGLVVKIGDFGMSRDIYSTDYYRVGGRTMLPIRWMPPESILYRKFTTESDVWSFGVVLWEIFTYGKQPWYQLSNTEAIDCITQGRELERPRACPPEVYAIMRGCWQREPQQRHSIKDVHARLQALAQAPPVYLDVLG
T1 sequence (P21860 709-966 limits assumed): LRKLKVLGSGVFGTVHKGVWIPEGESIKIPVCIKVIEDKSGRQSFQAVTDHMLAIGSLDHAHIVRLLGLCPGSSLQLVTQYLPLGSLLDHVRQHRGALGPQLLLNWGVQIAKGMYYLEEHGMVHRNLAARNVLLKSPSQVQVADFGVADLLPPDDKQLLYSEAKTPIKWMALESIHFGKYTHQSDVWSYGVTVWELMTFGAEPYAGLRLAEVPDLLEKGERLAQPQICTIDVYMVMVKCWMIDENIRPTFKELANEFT

For orientation: inhibition means the change of the read-out against control, counted positive when it falls. For the compound `COc1ccc(-c2ccco2)cc1Nc1ncnc2[nH]nc(-c3ccco3)c12` [compound 2, 3-(furan-2-yl)-N-(5-(furan-2-yl)-2-methoxyphenyl)-1H-pyrazolo[3,4-d]pyrimidin-4-amine], the “binding to HER3” value in [1] is reported as “capable of binding to HER3”. The inhibition at 0.1 µM stood at 20.4% in assay [2] (compound at 100 nM); 6.14% in assay [3] (compound at 100 nM); 3.44% in assay [4] (compound at 100 nM); 2.38% in assay [5] (compound at 100 nM); 0.665% in assay [6] (compound at 100 nM). The inhibition at 1 µM is 69.4% in [2] (compound at 1 μM); 19.8% in [3] (compound at 1 μM); 21.7% in [4] (compound at 1 μM); 4.5% in assay [5] (compound at 1 μM); -3.06% in assay [6] (compound at 1 μM).

For `COc1ccc(-c2ccoc2)cc1Nc1ncnc2[nH]cc(-c3cc[nH]n3)c12` [compound 3, N-(5-(furan-3-yl)-2-methoxyphenyl)-5-(1H-pyrazol-3-yl)-7H-pyrrolo[2,3-d]pyrimidin-4-amine], in assay [7], the “reduction of cell growth (confluence)” value is on record as “more effective at reducing the growth of CHL-1 cells”. In [8] (CHL-1, after 24 h DMSO or 500 nM lapatinib, then 24 h dose response), the “inhibition of feedback activated HER2/HER3 signaling” value is “better able to inhibit feedback activated HER2/HER3 signaling”. Also, the “inhibition of p-HER3 and PI3K/Akt pathway” value in [8] (CHL-1, dose response 24 h) is “better able to inhibit p-HER3 and thus the PI3K/Akt pathway”. Further, the “rescue by NRG” value in assay [9] is on record as “not”. Moreover, the “preferential inhibition in proliferation assays” value in assay [10] is given as “preferential inhibition of the mutationally activated EGFR”. In addition, the inhibition at 1 µM is 83% in [11], 66% in assay [12], 20% in assay [13] and -2% in [14]. Moreover, the “near complete inhibition of multiple phosphosites on EGFR” value in assay [15] is reported as “less than 10 nM”.

For `CS(=O)(=O)CCNCc1ccc(-c2ccc3ncnc(Nc4ccc(OCc5cccc(F)c5)c(Cl)c4)c3c2)o1` [lapatinib], in assay [16] (SK-BR-3, 1 μM lapatinib +/- NRG, 1 h), the “activation of EGFR family members” value is “HER3 is the only member of the EGFR family who remains activated”. Further, in assay [16] (SK-BR-3, NRG or vehicle 15 min then dose response 15 min), the “HER2/HER3 signaling after NRG pre-treatment” value is given as “NRG pre-treatment rescues HER2/HER3 signaling”. Moreover, the “efficacy on signaling, 15 min pre-treat vs simultaneous addition with NRG” value in assay [16] (SK-BR-3, serum starved 24 h) is reported as “reduced efficacy of lapatinib when simultaneously added with NRG”. Also, in assay [16] (SK-BR-3 treated with lapatinib, NRG, or both), the “HER2/HER3 signaling over a time-course” value was “NRG rescues p-HER3 and all downstream signaling at all time points examined”. Also, the inhibition of proliferation result in [17] was “unable to inhibit the proliferation”.
